Source: patent US10144732B2 (BIOGEN MA INC., priority 2014, dated 2018)
Counter-ions that a name gives are not always drawn. Like-named read-outs stand apart in the source and are kept apart here.

Biological target: T1, Human ATX protein (Homo sapiens, UniProt Q13822)
T1 construct: made in house
Test: ATX biochemical assay (FRET, FS-3 substrate)
Conditions: FS-3 2 μM, ATX 1.0 μg/mL, 30 minutes preincubation, 2 hours reaction at room temperature
Summary of the method: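 In-house human ATX (1.0 μg/mL final) was preincubated with compound for 30 min at room temperature in Tris buffer pH 7.4 with 1 mg/mL fatty acid free-BSA. FS-3 substrate (2 μM final) was then hydrolysed for 2 hours at room temperature, protected from light, and read as fluorescence at ex 485/em 538 nm.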

Row | Compound | IC50 (FRET assay, read-out: IC50) [nM] | IC50 (IC50, FRET assay) [nM]
1 | O=C(CC12CCC(C(=O)O)(CC1)C2)N1CCc2c(C(F)(F)F)nn(Cc3ccc(F)cc3)c2C1 [Example 5-53, 4-(2-(1-(4-Fluorobenzyl)-3-(trifluoromethyl)-4,5-dihydro-1H-pyrazolo[3,4-c]pyridin-6(7H)-yl)-2-oxoethyl)bicyclo[2.2.1]heptane-1-carboxylic acid] | ≤ 100 | 
2 | O=C(C[C@H]1CC[C@H](C(=O)O)CC1)N1CCc2c(C3CC3)nn(Cc3ccc(F)cc3)c2C1 [Example 5-38, trans-4-(2-(3-Cyclopropyl-1-(4-fluorobenzyl)-4,5-dihydro-1H-pyrazolo[3,4-c]pyridin-6(7H)-yl)-2-oxoethyl)cyclohexanecarboxylic acid] | ≤ 100 | 
3 | CN1CCC(CC(=O)N2CCc3c(C(F)(F)F)nn(Cc4ccc(Cl)cc4F)c3C2)CC1C(F)(F)F (centres unmarked) [Example 10-4, 1-(1-(4-Chloro-2-fluorobenzyl)-3-(trifluoromethyl)-4,5-dihydro-1H-pyrazolo[3,4-c]pyridin-6(7H)-yl)-2-(1-methyl-2-(trifluoromethyl)piperidin-4-yl)ethanone TFA salt] | ≤ 100 | 
4 | O=C(CC1CC2CCC(C1)N2)N1CCc2c(C(F)(F)F)nn(Cc3ccc(Cl)cc3F)c2C1 (centres unmarked) [Example 9-1, 2-(8-Aza-bicyclo[3.2.1]octan-3-yl)-1-(1-(4-chloro-2-fluorobenzyl)-3-(trifluoromethyl)-4,5-dihydro-1H-pyrazolo[3,4-c]pyridin-6(7H)-yl)ethanone TFA salt] |  | ≤ 100
5 | N#CC1CN(CC(=O)N2CCc3c(C(F)(F)F)nn(Cc4ccc(F)cc4)c3C2)C1 [Example 12-12, 1-(2-(1-(4-Fluorobenzyl)-3-(trifluoromethyl)-4,5-dihydro-1H-pyrazolo[3,4-c]pyridin-6(7H)-yl)-2-oxoethyl)azetidine-3-carbonitrile TFA salt] | ≤ 100 | 
6 | O=C(CC1CCN(c2ccncn2)CC1)N1CCc2c(C(F)(F)F)nn(Cc3ccc(F)cc3)c2C1 [Example 18-3, 1-(1-(4-Fluorobenzyl)-3-(trifluoromethyl)-4,5-dihydro-1H-pyrazolo[3,4-c]pyridin-6(7H)-yl)-2-(1-(pyrimidin-4-yl)piperidin-4-yl)ethanone TFA salt] | ≤ 100 | 
7 | O=C(O)CCN1CCC(C(=O)N2CCc3c(C(F)(F)F)nn(Cc4ccc(F)cc4)c3C2)C1 (centres unmarked) [Example 15-2, 3-(3-(1-(4-Fluorobenzyl)-3-(trifluoromethyl)-4,5,6,7-tetrahydro-1H-pyrazolo[3,4-c]pyridine-6-carbonyl)pyrrolidin-1-yl)propanoic acid TFA salt] | 100 to 250 | 
8 | COC(=O)C1CC2CCC(C1)N2CC(=O)N1CCc2c(C(F)(F)F)nn(Cc3ccc(Cl)cc3F)c2C1 (centres unmarked) [Example 12-4, Methyl 8-(2-(1-(4-chloro-2-fluorobenzyl)-3-(trifluoromethyl)-4,5-dihydro-1H-pyrazolo[3,4-c]pyridin-6(7H)-yl)-2-oxoethyl)-8-azabicyclo[3.2.1]octane-3-carboxylate] |  | ≤ 100
9 | COC(=O)C1CC2COCC(C1)N2CC(=O)N1CCc2c(C(F)(F)F)nn(Cc3ccc(F)cc3)c2C1 (centres unmarked) [Example 12-18, Methyl 9-(2-(1-(4-fluorobenzyl)-3-(trifluoromethyl)-4,5-dihydro-1H-pyrazolo[3,4-c]pyridin-6(7H)-yl)-2-oxoethyl)-3-oxa-9-azabicyclo[3.3.1]nonane-7-carboxylate] |  | ≤ 100
10 | O=C(O)[C@H]1C2C3C[C@@H]1C(CC(=O)N1CCc4c(C(F)(F)F)nn(Cc5ccc(F)cc5)c4C1)C32 (stereo partly drawn) [Example 6-17, (3R,4R)-5-(2-(1-(4-Fluorobenzyl)-3-(trifluoromethyl)-4,5-dihydro-1H-pyrazolo[3,4-c]pyridin-6(7H)-yl)-2-oxoethyl)tricyclo[2.2.1.02,6]heptane-3-carboxylic acid] | ≤ 100 | 

Second part, led by results:

Row | IC50 (FRET assay, read-out: IC50) [nM] | Compound | IC50 (IC50, FRET assay) [nM]
11 | ≤ 100 | O=C(O)[C@H]1CC[C@@H](C(=O)N2CCc3c(C(F)(F)F)nn(Cc4ccc(F)cc4)c3C2)CC1 [Example 7-18, cis-4-(1-(4-fluorobenzyl)-3-(trifluoromethyl)-4,5,6,7-tetrahydro-1H-pyrazolo[3,4-c]pyridine-6-carbonyl)cyclohexanecarboxylic acid] | 
12 | ≤ 100 | CC1CCC(CC(=O)N2CCc3c(C(F)(F)F)nn(Cc4ccc(Cl)cc4F)c3C2)CC1 (centres unmarked) [Example 1-21, 1-(1-(4-Chloro-2-fluorobenzyl)-3-(trifluoromethyl)-4,5-dihydro-1H-pyrazolo[3,4-c]pyridin-6(7H)-yl)-2-(4-methylcyclohexyl)ethanone] | 
13 | ≤ 100 | O=C(CC1CCC(N2CCC2)CC1)N1CCc2c(C(F)(F)F)nn(Cc3ccc(F)cc3)c2C1 (centres unmarked) [Example 22-6, 2-(4-(Azetidin-1-yl)cyclohexyl)-1-(1-(4-fluorobenzyl)-3-(trifluoromethyl)-4,5-dihydro-1H-pyrazolo[3,4-c]pyridin-6(7H)-yl)ethanone TFA salt] | 
14 | ≤ 100 | O=C(CC1CCC(N2CCOCC2)CC1)N1CCc2c(C(F)(F)F)nn(Cc3ccc(F)cc3)c2C1 (centres unmarked) [Example 22-10, 1-(1-(4-Fluorobenzyl)-3-(trifluoromethyl)-4,5-dihydro-1H-pyrazolo[3,4-c]pyridin-6(7H)-yl)-2-(4-morpholinocyclohexyl)ethanone TFA salt] | 
15 | ≤ 100 | O=C(C[C@H]1CC[C@H](C(=O)O)CC1)N1CCc2c(C(F)(F)F)nn(Cc3ccc(F)cc3)c2C1 [Example 7-1, trans-4-(2-(1-(4-Fluorobenzyl)-3-(trifluoromethyl)-4,5-dihydro-1H-pyrazolo[3,4-c]pyridin-6(7H)-yl)-2-oxoethyl)cyclohexanecarboxylic acid] | 
16 | ≤ 100 | O=C(C[C@H]1CC[C@H](C(=O)O)CC1)N1CCc2c(C(F)(F)F)nn(Cc3cccnc3)c2C1 [Example 5-22, trans-4-(2-Oxo-2-(1-(pyridin-3-ylmethyl)-3-(trifluoromethyl)-4,5-dihydro-1H-pyrazolo[3,4-c]pyridin-6(7H)-yl)ethyl)cyclohexanecarboxylic acid] | 
17 | ≤ 100 | CCOC(=O)C1CCC(CC(=O)N2CCc3c(C(F)(F)F)nn(Cc4ccc(C(F)(F)F)cc4)c3C2)CC1 (centres unmarked) [Example 1-10, Ethyl 4-(2-oxo-2-(3-(trifluoromethyl)-1-(4-(trifluoromethyl)benzyl)-4,5-dihydro-1H-pyrazolo[3,4-c]pyridin-6(7H)-yl)ethyl)cyclohexanecarboxylate] | 
18 | ≤ 100 | COC(=O)[C@H]1CC[C@@H](NC(=O)N2CCc3c(C(F)(F)F)nn(Cc4ccc(Cl)cc4F)c3C2)CC1 [Example 3-1, cis-Methyl 4-(1-(4-chloro-2-fluorobenzyl)-3-(trifluoromethyl)-4,5,6,7-tetrahydro-1H-pyrazolo[3,4-c]pyridine-6-carboxamido)cyclohexanecarboxylate] | 
19 | ≤ 100 | CCOC(=O)C1CCC(CC(=O)N2CCc3c(C(F)(F)F)nn(Cc4ccccc4)c3C2)CC1 (centres unmarked) [Example 1-13, Ethyl 4-(2-(1-benzyl-3-(trifluoromethyl)-4,5-dihydro-1H-pyrazolo[3,4-c]pyridin-6(7H)-yl)-2-oxoethyl)cyclohexanecarboxylate] | 
20 | ≤ 100 | CCOC(=O)[C@H]1CC[C@H](CC(=O)N2CCc3c(C(F)(F)F)nn(Cc4ccc(OC)cc4)c3C2)CC1 [Example 1-26, trans-Ethyl 4-(2-(1-(4-methoxylbenzyl)-3-(trifluoromethyl)-4,5-dihydro-1H-pyrazolo[3,4-c]pyridin-6(7H)-yl)-2-oxoethyl)cyclohexanecarboxylate] | 
